Tests used:
Format in all cases: cell-based
[1] = molecular target: human α1G T-type channels (Homo sapiens, UniProt O43497); assay: T-type calcium channel block, whole cell patch clamp, α1G; details: HEK cells stably expressing human α1G; mainly non-inactivated protocol; values above 10,000 nM represented as 10000
How it was run: (§1)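 Using standard patch-clamp, T-type currents were recorded from stably transfected human α1G or α1H HEK 293 cells. Separate non-inactivating and inactivation voltage protocols distinguished resting from voltage-dependent block by locally applied compound in 0.1-0.01% DMSO.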

[2] = molecular target: human α1H T-type channels (Homo sapiens, UniProt O95180); assay: T-type calcium channel block, whole cell patch clamp, α1H; details: HEK cells stably expressing human α1H; mainly non-inactivated protocol; values above 10,000 nM represented as 10000
Sequence of human α1H T-type channels (O95180 whole entry): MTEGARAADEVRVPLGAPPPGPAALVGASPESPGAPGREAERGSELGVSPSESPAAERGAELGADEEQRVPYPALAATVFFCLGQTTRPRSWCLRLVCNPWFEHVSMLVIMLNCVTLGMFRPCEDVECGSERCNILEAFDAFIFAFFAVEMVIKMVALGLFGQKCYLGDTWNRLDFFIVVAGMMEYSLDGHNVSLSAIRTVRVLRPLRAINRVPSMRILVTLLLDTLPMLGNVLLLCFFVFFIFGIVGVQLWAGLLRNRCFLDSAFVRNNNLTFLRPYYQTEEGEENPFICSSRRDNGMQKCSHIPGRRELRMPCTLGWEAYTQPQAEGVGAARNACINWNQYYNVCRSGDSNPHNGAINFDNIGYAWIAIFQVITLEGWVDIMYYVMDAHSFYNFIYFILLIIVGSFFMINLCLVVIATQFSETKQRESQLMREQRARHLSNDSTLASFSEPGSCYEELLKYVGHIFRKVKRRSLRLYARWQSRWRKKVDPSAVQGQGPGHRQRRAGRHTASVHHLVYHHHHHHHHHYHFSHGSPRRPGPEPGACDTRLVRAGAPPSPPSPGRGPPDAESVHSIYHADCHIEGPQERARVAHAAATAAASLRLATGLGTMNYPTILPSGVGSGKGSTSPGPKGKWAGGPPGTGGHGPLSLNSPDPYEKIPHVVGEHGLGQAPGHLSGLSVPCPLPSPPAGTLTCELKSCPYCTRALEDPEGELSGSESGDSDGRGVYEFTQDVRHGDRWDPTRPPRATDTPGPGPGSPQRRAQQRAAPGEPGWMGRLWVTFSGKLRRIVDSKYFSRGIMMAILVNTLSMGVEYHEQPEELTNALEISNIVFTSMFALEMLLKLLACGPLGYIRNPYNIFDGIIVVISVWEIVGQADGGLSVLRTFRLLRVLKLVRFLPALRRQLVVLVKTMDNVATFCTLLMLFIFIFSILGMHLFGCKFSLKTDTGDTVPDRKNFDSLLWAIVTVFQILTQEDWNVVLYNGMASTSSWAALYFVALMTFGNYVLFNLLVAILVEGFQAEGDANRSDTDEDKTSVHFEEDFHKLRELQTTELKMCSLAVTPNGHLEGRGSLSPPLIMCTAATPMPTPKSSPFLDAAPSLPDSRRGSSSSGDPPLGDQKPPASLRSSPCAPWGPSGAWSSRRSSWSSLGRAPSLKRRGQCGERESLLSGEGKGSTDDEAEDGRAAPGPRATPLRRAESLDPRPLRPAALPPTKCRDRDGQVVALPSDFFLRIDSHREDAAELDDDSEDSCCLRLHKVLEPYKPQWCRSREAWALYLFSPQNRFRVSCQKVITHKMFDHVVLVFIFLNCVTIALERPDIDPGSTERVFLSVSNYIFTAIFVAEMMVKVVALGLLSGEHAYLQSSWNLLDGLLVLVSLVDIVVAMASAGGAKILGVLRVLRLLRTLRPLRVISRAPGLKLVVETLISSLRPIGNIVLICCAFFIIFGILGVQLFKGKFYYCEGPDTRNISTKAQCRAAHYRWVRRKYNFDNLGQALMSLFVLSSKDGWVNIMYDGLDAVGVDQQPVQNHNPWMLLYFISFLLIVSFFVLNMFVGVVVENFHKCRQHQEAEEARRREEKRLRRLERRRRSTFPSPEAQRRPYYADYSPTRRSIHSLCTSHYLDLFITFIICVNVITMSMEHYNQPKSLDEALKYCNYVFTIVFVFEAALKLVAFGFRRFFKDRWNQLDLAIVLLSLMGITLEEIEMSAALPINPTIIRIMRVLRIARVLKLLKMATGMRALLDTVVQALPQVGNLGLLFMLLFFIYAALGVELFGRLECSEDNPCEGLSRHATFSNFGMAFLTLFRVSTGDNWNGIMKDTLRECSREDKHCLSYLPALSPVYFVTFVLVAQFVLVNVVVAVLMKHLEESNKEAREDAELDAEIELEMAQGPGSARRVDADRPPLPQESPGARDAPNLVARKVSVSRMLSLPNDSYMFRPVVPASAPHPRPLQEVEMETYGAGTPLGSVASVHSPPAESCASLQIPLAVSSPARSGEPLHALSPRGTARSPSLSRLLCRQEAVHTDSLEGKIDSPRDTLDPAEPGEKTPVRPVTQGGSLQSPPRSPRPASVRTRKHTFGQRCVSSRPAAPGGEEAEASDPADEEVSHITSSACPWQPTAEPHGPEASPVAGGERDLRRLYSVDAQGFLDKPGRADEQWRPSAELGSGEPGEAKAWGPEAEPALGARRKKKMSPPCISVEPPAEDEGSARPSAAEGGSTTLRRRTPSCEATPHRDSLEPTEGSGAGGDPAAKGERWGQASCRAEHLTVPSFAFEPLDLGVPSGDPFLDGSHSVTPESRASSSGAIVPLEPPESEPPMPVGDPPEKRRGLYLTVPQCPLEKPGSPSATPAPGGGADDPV
How it was run: as §1

[3] = molecular target: N-type calcium channel subunits (α1B, α2δ, and β3a) (Homo sapiens, UniProt Q00975); assay: Block of Cav2.2 channel, whole cell voltage clamp, manual and PatchXpress; details: Table 5; table follows Assay Example 3 (whole cell voltage clamp / PatchXpress); assay not given
How it was run: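 Percent block taken as current amplitude ratio with versus without compound, applied in rising doses; IC50 fitted where one cell received multiple doses. Protocol: 50 ms pulses to +20 mV at 0.067 Hz from […] or −90 mV holding; P/n leak subtraction, no junction-potential correction; manual and PatchXpress recordings.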

Sequence of human α1G T-type channels (O43497 whole entry): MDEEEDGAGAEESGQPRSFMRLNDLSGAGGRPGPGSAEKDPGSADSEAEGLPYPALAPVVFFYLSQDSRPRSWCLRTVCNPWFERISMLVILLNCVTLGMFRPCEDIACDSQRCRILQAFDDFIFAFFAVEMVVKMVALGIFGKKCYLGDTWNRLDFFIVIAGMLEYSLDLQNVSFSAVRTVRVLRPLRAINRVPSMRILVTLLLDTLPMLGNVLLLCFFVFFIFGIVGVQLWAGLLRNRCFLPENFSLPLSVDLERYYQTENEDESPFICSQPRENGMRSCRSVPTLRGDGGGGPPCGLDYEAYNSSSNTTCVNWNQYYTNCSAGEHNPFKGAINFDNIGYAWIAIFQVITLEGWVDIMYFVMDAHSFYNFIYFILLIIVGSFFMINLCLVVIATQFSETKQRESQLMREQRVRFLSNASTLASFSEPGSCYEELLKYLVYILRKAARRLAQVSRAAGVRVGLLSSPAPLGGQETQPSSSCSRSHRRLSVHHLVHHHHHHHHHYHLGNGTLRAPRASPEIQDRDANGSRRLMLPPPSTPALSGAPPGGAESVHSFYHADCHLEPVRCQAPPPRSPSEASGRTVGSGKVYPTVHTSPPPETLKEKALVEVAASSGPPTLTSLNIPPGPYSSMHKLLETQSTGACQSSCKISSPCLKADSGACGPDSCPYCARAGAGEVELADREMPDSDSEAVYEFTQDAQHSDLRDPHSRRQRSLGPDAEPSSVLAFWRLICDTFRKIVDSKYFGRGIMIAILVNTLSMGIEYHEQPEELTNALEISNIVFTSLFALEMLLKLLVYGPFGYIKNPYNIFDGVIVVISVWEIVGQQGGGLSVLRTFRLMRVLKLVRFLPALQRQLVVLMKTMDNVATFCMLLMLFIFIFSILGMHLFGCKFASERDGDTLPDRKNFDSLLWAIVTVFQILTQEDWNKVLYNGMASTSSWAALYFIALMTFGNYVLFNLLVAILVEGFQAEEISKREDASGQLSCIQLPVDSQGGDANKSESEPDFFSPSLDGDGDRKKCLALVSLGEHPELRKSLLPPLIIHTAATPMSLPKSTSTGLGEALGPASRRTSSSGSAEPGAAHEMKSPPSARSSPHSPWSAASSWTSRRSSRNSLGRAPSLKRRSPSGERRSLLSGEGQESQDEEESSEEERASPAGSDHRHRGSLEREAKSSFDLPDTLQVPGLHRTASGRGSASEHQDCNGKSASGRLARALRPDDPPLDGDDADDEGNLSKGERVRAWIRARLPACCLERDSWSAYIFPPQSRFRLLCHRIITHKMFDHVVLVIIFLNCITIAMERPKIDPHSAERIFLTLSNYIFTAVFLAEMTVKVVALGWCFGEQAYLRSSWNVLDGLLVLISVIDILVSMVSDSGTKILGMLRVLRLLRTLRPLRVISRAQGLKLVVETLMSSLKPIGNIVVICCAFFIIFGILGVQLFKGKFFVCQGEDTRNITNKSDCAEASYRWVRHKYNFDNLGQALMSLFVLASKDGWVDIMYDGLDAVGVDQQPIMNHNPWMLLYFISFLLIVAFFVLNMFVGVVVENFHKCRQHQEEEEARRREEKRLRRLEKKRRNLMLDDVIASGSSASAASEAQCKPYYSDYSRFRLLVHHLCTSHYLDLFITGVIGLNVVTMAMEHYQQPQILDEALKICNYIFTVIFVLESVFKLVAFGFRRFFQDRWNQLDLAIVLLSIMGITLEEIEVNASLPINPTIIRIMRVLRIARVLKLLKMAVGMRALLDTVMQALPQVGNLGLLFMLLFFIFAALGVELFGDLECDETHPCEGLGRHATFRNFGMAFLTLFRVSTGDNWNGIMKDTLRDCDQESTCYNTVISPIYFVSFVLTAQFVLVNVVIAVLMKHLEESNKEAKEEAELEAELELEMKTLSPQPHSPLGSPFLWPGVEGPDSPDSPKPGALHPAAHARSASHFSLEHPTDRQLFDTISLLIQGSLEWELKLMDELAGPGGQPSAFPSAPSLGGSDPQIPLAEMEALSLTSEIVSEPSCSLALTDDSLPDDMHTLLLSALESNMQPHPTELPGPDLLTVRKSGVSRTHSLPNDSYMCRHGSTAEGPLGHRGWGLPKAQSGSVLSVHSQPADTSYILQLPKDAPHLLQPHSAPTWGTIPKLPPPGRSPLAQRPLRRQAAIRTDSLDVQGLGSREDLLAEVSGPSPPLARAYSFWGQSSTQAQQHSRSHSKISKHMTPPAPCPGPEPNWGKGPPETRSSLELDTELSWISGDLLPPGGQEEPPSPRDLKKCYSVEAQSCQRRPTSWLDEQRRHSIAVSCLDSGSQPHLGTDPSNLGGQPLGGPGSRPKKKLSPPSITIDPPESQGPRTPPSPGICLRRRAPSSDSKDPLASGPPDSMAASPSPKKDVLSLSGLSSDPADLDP

IC50 [1] [nM]	IC50 [2] [nM]	IC50 [3] [nM]	SMILES
> 10000	7060	140	O=C(NC[C@H]1C[C@H](S(=O)(=O)c2cccc(C(F)(F)F)c2)C1)c1ccc(F)c(C(F)(F)F)c1 [Compound 354, 4-fluoro-3-(trifluoromethyl)-N-(((1R,3R)-3-(3-(trifluoromethyl)phenylsulfonyl)cyclobutyl)methyl)benzamide]
1430	740	190	Cn1nc(C(F)(F)F)cc1C(=O)NC[C@H]1C[C@H](S(=O)(=O)c2cccc(C(F)(F)F)c2)C1 [Compound 355, 1-methyl-3-(trifluoromethyl)-N-(((1R,3R)-3-(3-(trifluoromethyl)phenylsulfonyl)cyclobutyl)methyl)-1H-pyrazole-5-carboxamide]
> 10000	> 10000	200	O=C(NC[C@H]1C[C@H](S(=O)(=O)c2cccc(C(F)(F)F)c2)C1)c1ccc(F)c(Cl)c1 [Compound 357, 3-chloro-4-fluoro-N-(((1R,3R)-3-(3-(trifluorornethyl)phenylsulfonyl)cyclobutyl)methyl)benzamide]
8370	> 10000	190	O=C(NC[C@H]1C[C@H](S(=O)(=O)c2cccc(C(F)(F)F)c2)C1)c1ccc(C(F)(F)F)cn1 [Compound 358, 5-(trifluoromethyl)-N-(((1R,3R)-3-(3-(trifluoromethyl)phenylsulfonyl)cyclobutyl)methyl)picolinamide]
1620	200	460	O=C(NC[C@H]1C[C@H](S(=O)(=O)c2cccc(C(F)(F)F)c2)C1)c1ccnc(C(F)(F)F)c1 [Compound 361, 2-(trifluoromethyl)-N-(((1R,3R)-3-(3-(trifluoromethyl)phenylsulfonyl)cyclobutyl)methyl)isonicotinamide]
> 10000	> 10000	190	O=C(NC[C@H]1C[C@H](S(=O)(=O)c2cccc(C(F)(F)F)c2)C1)c1ccc(Cl)c(OC(F)(F)F)c1 [Compound 366, 4-chloro-3-(trifluoromethoxy)-N-(((1R,3R)-3-(3-(trifluoromethyl)phenylsulfonyl)cyclobutyl)methyl)benzamide]
900	350	850	O=C(NC[C@H]1C[C@H](S(=O)(=O)c2cccc(C(F)(F)F)c2)C1)c1ccnn1CC(F)(F)F [Compound 367, 1-(2,2,2-trifluoroethyl)-N-(((1R,3R)-3-(3-(trifluoromethyl)phenylsulfonyl)cyclobutyl)methyl)-1H-pyrazole-5-carboxamide]
> 10000	> 10000	160	O=C(NC[C@H]1C[C@H](S(=O)(=O)c2cccc(C(F)(F)F)c2)C1)c1ccc(Cl)c(Cl)c1 [Compound 369, 3,4-dichloro-N-(((1R,3R)-3-(3-(trifluoromethyl)phenylsulfonyl)cyclobutyl)methyl)benzamide]
1060	660	1160	O=C(NC[C@H]1C[C@H](S(=O)(=O)c2cccc(C(F)(F)F)c2)C1)c1cnc(C(F)(F)F)nc1 [Compound 371, 2-(trifluoromethyl)-N-(((1R,3R)-3-(3-(trifluoromethyl)phenylsulfonyl)cyclobutyl)methyl)pyrimidine-5-carboxamide]
7170	9630	260	O=C(NC[C@H]1C[C@H](S(=O)(=O)c2cccc(C(F)(F)F)c2)C1)c1cc(C(F)(F)F)ccn1 [Compound 372, 4-(trifluoromethyl)-N-(((1R,3R)-3-(3-(trifluoromethyl)phenylsulfonyl)cyclobutyl)methyl)picolinamide]
820	610	250	O=C(NC[C@H]1C[C@H](S(=O)(=O)c2cccc(C(F)(F)F)c2)C1)c1ccc(OC(F)(F)F)cc1 [Compound 373, 4-(trifluoromethoxy)-N-(((1R,3R)-3-(3-(trifluoromethyl)phenylsulfonyl)cyclobutyl)methyl)benzamide]
2340	1040	460	O=C(NC[C@H]1C[C@@H](S(=O)(=O)c2cccc(C(F)(F)F)c2)C1)c1ccc(F)c(C(F)(F)F)c1 [Compound 377, 4-fluoro-3-(trifluoromethyl)-N-(((1S,3S)-3-(3-(trifluoromethyl)phenylsulfonyl)cyclobutyl)methyl)benzamide]
2790	1630	1130	Cn1nc(C(F)(F)F)cc1C(=O)NC[C@H]1C[C@@H](S(=O)(=O)c2cccc(C(F)(F)F)c2)C1 [Compound 378, 1-methyl-3-(trifluoromethyl)-N-(((1S,3S)-3-(3-(trifluoromethyl)phenylsulfonyl)cyclobutyl)methyl)-1H-pyrazole-5-carboxamide]
1810	300	830	O=C(NC[C@H]1C[C@@H](S(=O)(=O)c2cccc(C(F)(F)F)c2)C1)c1ccc(F)c(Cl)c1 [Compound 379, 3-chloro-4-fluoro-N-(((1S,3S)-3-(3-(trifluoromethyl)phenylsulfonyl)cyclobutyl)methyl)benzamide]
> 10000	5950	1360	O=C(NC[C@H]1C[C@@H](S(=O)(=O)c2cccc(C(F)(F)F)c2)C1)c1ccnc(C(F)(F)F)n1 [Compound 383, 2-(trifluoromethyl)-N-(((1S,3S)-3-(3-(trifluoromethyl)phenylsulfonyl)cyclobutyl)methyl)pyrimidine-4-carboxamide]

Second part, the molecule before the results:

SMILES	IC50 [1] [nM]	IC50 [2] [nM]	IC50 [3] [nM]
O=C(N[C@H]1C[C@H](CS(=O)(=O)c2cccc(C(F)(F)F)c2)C1)c1ccc(C(F)(F)F)cn1 [Compound 347, 5-(trifluoromethyl)-N-((1R,3R)-3-((3-(trifluoromethyl)phenylsulfonyl)methyl)cyclobutyl)picolinamide]	2370	260	1120
O=C(N[C@H]1C[C@H](CS(=O)(=O)c2cccc(C(F)(F)F)c2)C1)c1ccc(F)c(Cl)c1 [Compound 348, 3-chloro-4-fluoro-N-((1R,3R)-3-((3-(trifluoromethyl)phenylsulfonyl)methyl)cyclobutyl)benzamide]	4520	540	1030
COc1cc(F)cc(C(=O)N[C@H]2C[C@H](CS(=O)(=O)c3cccc(C(F)(F)F)c3)C2)c1 [Compound 349, 3-fluoro-5-methoxy-N-((1R,3R)-3-((3-(trifluoromethyl)phenylsulfonyl)methyl)cyclobutyl)benzamide]	> 10000	> 10000	890
Cn1nc(C(F)(F)F)cc1C(=O)N[C@H]1C[C@H](CS(=O)(=O)c2cccc(C(F)(F)F)c2)C1 [Compound 350, 1-methyl-3-(trifluoromethyl)-N-((1R,3R)-3-((3-(trifluoromethyl)phenylsulfonyl)methyl)cyclobutyl)-1H-pyrazole-5-carboxamide]	> 10000	> 10000	1410
CC1(NC(=O)CN[C@H]2C[C@H](CS(=O)(=O)c3cccc(C(F)(F)F)c3)C2)CCC1 [Compound 351, N-(1-methylcyclobutyl)-2-((1R,3R)-3-((3-(trifluoromethyl)phenylsulfonyl)methyl)cyclobutylamino)acetamide]	> 10000	7430	2770
CC(C)(C)NC(=O)CN[C@H]1C[C@H](CS(=O)(=O)c2cccc(C(F)(F)F)c2)C1 [Compound 352, N-tert-butyl-2-((1R,3R)-3-((3-(trifluoromethyl)phenylsulfonyl)methyl)cyclobutylamino)acetamide]	640	230	3760
O=C(CN[C@H]1C[C@H](CS(=O)(=O)c2cccc(C(F)(F)F)c2)C1)NC1CCCCC1 [Compound 353, N-cyclohexyl-2-((1R,3R)-3-((3-(trifluoromethyl)phenylsulfonyl)methyl)cyclobutylamino)acetamide]	5020	1980	3210
O=C(NC[C@H]1C[C@H](S(=O)(=O)c2cccc(C(F)(F)F)c2)C1)c1cn2cc(C(F)(F)F)ccc2n1 [Compound 360, 6-(trifluoromethyl)-N-(((1R,3R)-3-(3-(trifluoromethyl)phenylsulfonyl)cyclobutyl)methyl)imidazo[l,2-a]pyridine-2-carboxamide]	> 10000	> 10000	190
CS(=O)(=O)c1cc(C(F)(F)F)cnc1C(=O)NC[C@H]1C[C@H](S(=O)(=O)c2cccc(C(F)(F)F)c2)C1 [Compound 364, 3-(methylsulfonyl)-5-(trifluoromethyl)-N-(((1R,3R)-3-(3-(trifluoromethyl)phenylsulfonyl)cyclobutyl)methyl)picolinamide]	520	210	1400
CS(=O)(=O)c1cc(Cl)ccc1C(=O)NC[C@H]1C[C@H](S(=O)(=O)c2cccc(C(F)(F)F)c2)C1 [Compound 368, 4-chloro-2-(methylsulfonyl)-N-(((1R,3R)3-(3-(trifluoromethyl)phenylsulfonyl)cyclobutyl)methyl)benzamide]	950	400	940
O=C(NC[C@H]1C[C@H](S(=O)(=O)c2cccc(C(F)(F)F)c2)C1)c1cc(F)cc(Cl)c1 [Compound 370, 3-chloro-5-fluoro-N-(((1R,3R)-3-(3-(trifluoromethyl)phenylsulfonyl)cyclobutyl)methyl)benzamide]	680	640	290

— patent US20120245137A1 (Zalicus Pharmaceuticals Ltd., priority 2009, published 2012)
